{
  "source": "patent US20090055964A1",
  "about": "“MPO1 GENE AND PROTEIN AND METHODS OF USE” (priority 2006, published 2009)",
  "key": {"[1]": {"target": "T1, recombinant TRX-NtMPO1 fusion protein (Nicotiana tabacum, UniProt A0A1S4BDC4)", "T1 sequence (A0A1S4BDC4 1-790)": "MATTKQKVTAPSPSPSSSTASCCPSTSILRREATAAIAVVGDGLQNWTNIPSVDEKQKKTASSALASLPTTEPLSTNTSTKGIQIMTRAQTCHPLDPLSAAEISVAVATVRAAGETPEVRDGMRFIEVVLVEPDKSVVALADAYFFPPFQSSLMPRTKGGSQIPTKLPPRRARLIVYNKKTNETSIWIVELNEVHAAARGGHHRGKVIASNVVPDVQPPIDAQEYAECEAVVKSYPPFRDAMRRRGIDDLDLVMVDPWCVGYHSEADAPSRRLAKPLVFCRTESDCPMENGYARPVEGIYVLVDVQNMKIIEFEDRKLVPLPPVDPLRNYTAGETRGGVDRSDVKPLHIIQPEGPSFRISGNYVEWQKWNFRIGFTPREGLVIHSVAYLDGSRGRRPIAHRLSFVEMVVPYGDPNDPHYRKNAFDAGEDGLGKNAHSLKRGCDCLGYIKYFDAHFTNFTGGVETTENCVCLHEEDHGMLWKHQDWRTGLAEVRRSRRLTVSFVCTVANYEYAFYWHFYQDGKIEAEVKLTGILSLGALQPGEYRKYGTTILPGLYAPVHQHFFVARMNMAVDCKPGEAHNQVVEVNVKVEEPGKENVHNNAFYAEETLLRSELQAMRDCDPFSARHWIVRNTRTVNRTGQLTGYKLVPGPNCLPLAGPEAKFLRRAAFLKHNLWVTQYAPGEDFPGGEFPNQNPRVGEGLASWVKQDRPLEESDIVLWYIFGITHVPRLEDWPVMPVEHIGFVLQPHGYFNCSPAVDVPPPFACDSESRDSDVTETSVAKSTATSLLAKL", "test": "spectrophotometric amine oxidase assay of recombinant TRX-NtMPO1 with diamine substrates", "conditions": "for Vmax: substrate kinetics, Lineweaver-Burk plots, three independent extracts", "experimental": "This modified fragment was cloned into pCR2.1 (Invitrogen) to yield pJGJ367. […] Finally, a 2.6 Kb NcoI-XhoI (partial) fragment was cut from pJGJ369 and ligated into pET32a+ similarly cut, to yield pJGJ389. Plasmid pJGJ389 was transformed into the Rosetta E. coli strain (Novagen, Madison, Wis.) for expression of a recombinant […] protein. Mid-log phase Rosetta/pJGJ389 cells were cultured overnight in LB media supplemented with 100 ug/ml Ampicillin, 30 ug/ml Chloramphenicol, and 0.2 mM isopropyl-β-D-thiogalactoside at 18° C. at 250 rpm. The cells were pelleted, lysed, and the native protein extract incubated with Ni-NTA superflow resin, and the TRX-MPO1 was eluted as per manufacture's instructions (Qiagen, Valencia, Calif.). The TRX-MPO1 enriched extract was mixed 1:1 (v:v) with 100% glycerol and stored at −20° C."}, "NCCCN": {"tested_on": "NCCCN", "test": "purified protein, by the assay type", "conditions": "other: substrate kinetics, Lineweaver-Burk plots, three independent extracts; 18.0 °C", "method": "Mid-log phase Rosetta/pJGJ389 cells were cultured overnight in LB media supplemented with 100 ug/ml Ampicillin, 30 ug/ml Chloramphenicol, and 0.2 mM isopropyl-β-D-thiogalactoside at 18° C. at 250 rpm. The cells were pelleted, lysed, and the native protein extract incubated with Ni-NTA superflow resin, and the TRX-MPO1 was eluted as per manufacture's instructions (Qiagen, Valencia, Calif.). The TRX-MPO1 enriched extract was mixed 1:1 (v:v) with 100% glycerol and stored at −20° C. […] Background-corrected diamine oxidase rates were graphed as Lineweaver-Burk plots in order to estimate the Vmax and Km of the recombinant TRX -NtMPO1 fusion protein isolated from three independent extracts."}},
  "data": [
    {"molecule": "NCCCN", "note": "[1,3-diamine propane, 1,3-diaminepropane]", "values": [
      {"measurement": "oxidative deamination as substrate by recombinant TRX-MPO1", "setting": "[1]; qualitative, different kinetics for each substrate", "result": "oxidatively deaminated"}
    ]},
    {"molecule": "CNCCCCN", "note": "[N-methylputrescine, N-methyl-1,4 diaminebutane]", "values": [
      {"measurement": "Vmax", "setting": "[1]", "result": "0.0017 ± 0.0001", "unit": "mM/min"}
    ]},
    {"molecule": "NCCCCCN", "note": "[cadaverine]", "values": [
      {"measurement": "Vmax", "setting": "[1]", "result": "0.0003 ± 0.00004", "unit": "mM/min"}
    ]},
    {"molecule": "NCCCCN", "note": "[putrescine]", "values": [
      {"measurement": "Vmax", "setting": "[1]", "result": "0.0007 ± 0.0001", "unit": "mM/min"}
    ]},
    {"molecule": "recombinant TRX-NtMPO1 fusion protein (Nicotiana tabacum)", "values": [
      {"measurement": "Km", "setting": "NCCCN", "result": "350 ± 30", "unit": "µM"},
      {"measurement": "Vmax", "setting": "NCCCN", "result": 0.7, "unit": "µM/min"},
      {"measurement": "Vmax/Km", "setting": "NCCCN", "result": 0.00193, "unit": "min⁻¹"}
    ]}
  ]
}
